target: T1, Histone-arginine methyltransferase CARM1 (Homo sapiens, UniProt Q86X55); test: Enzyme Assay
T1 sequence (Q86X55 whole entry): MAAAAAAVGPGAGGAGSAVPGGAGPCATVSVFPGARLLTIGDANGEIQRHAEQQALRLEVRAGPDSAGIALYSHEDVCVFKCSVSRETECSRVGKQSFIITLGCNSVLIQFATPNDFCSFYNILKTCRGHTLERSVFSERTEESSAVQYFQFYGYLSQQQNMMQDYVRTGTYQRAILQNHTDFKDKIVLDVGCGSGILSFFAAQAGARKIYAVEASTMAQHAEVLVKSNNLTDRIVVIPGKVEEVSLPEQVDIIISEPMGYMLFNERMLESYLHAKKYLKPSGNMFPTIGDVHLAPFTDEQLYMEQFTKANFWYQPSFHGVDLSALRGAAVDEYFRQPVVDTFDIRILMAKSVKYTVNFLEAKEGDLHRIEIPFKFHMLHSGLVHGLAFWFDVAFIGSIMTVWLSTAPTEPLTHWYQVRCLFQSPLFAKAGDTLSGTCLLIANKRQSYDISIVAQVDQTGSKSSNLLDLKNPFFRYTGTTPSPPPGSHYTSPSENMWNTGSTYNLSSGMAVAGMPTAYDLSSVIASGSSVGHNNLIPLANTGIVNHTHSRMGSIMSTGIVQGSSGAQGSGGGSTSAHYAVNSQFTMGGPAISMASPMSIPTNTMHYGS
Description: The assays were all performed in a buffer consisting of 20 mM Bicine (pH=7.6), 1 mM TCEP, 0.005% BSG, and 0.002% Tween 20, prepared on the day of use. […] DMSO (1 ul) was added to Columns 11, 12, 23, 24, rows A-H for the maximum signal control and 1 ul of SAH, a known product and inhibitor of CARM1, was added to columns 11, 12, 23, 24, rows I-P for the minimum signal control. A cocktail (40 ul) containing the CARM1 enzyme was added by Multidrop Combi. The compounds were allowed to incubate with CARM1 for 30 min at room temperature, then a cocktail (10 ul) containing 3H-SAM and peptide was added to initiate the reaction (final volume=51 ul). […] The assays were stopped by the addition of non-radiolabeled SAM (10 ul) to a final concentration of 300 uM, which dilutes the 3H-SAM to a level where its incorporation into the peptide substrate is no longer detectable. 50 ul of the reaction in the 384-well polypropylene plate was then transferred to a 384-well Flashplate and the biotinylated peptides were allowed to bind to the streptavidin surface for at least 1 hour before being washed once with 0.1% Tween20 in a Biotek ELx405 plate washer.

IC50, < 0.1 µM:
CCN1CCC(Nc2nc(-c3cc(OC[C@H](O)CNC)ccc3Cl)nc(-c3c(C)noc3C)c2C)C(F)(F)C1 (stereo partly specified) [US10633389, Example 291-3]
CNC[C@@H](O)COc1ccc(Cl)c(-c2nc(NC3CCN(C4CC4)CC3(F)F)c(C)c(-c3c(C)noc3C)n2)c1 (stereo partly specified) [US10633389, Example 292-3]
CNCC(O)COc1cccc(-c2nc(N[C@@H]3CCOC3)c(C)c(N3CCC[C@H]4CN(Cc5ccccc5)C[C@H]43)n2)c1 (stereo partly specified) [US10633389, Example 378-1a]
CNCC(O)COc1cccc(-c2nc(N[C@@H]3CCOC3)c(C)c(N3CCC(n4c(C)nnc4C)CC3)n2)c1 (stereo partly specified) [US10633389, Example 390-1a]
CNCC(O)COc1cccc(-c2nc(N[C@@H]3CCOC3)c(C)c(-c3ccc4nccn4c3)n2)c1 (stereo partly specified) [US10633389, Example 445-1a]
CCS(=O)(=O)n1cc(-c2cc(N(C)C3CCOCC3)nc(-c3cccc(OCC(O)CNC)c3)n2)c2cncnc21 (stereo unspecified) [US10633389, Example 484-1a]

Source: BindingDB's records for patent US10633389 (Epizyme, Inc., 2020)
